From ChEMBL document CHEMBL4261542, “Recent advances in combretastatin based derivatives and prodrugs as antimitotic agents” (Medchemcomm, 2017)
Blank lines part the entries; values can stand above or below the compound they belong to.

Key:
Tubulin = test: Inhibition of tubulin polymerization (unknown origin); assay type: protein-complex assay, Homo sapiens
A549 = test: Antiproliferative activity against human A549 cells; assay type: functional, cell-based
MCF7 = test: Antiproliferative activity against human MCF7 cells; assay type: functional, cell-based
DU-145 = test: Antiproliferative activity against human DU145 cells after 48 hrs by MTT assay; assay type: functional, cell-based; conditions: DU-145, 48 h
[1] = Inhibition of [3H]colchicine binding to bovine brain tubulin after 20 mins by spectrophotometric analysis; design: species or system Bos taurus
HT-1080 = test: Antiproliferative activity against human HT1080 cells after 72 hrs by MTT assay; assay type: functional, cell-based; conditions: HT-1080, 72 h
SGC-7901 = test: Antiproliferative activity against human SGC7901 cells after 72 hrs by MTT assay; assay type: functional, cell-based; conditions: SGC-7901, 72 h
L929 = test: Cytotoxicity against mouse L929 cells after 72 hrs by MTT assay; assay type: cell-based; conditions: L929, 72 h
KB = test: Antiproliferative activity against human KB cells after 72 hrs by MTT assay; assay type: functional, cell-based

IC50 (Tubulin): 1700 nM
Structure (SMILES): CCOc1ccc(-c2cc(C)nn2-c2cc(OC)c(OC)c(OC)c2)cc1Cl

IC50 (HT-1080): 70 nM
IC50 (SGC-7901): 390 nM
IC50 (KB): 45 nM
Structure (SMILES): COc1cc(-n2c(C)ccc2-c2cc(OC)c(OC)c(OC)c2)ccc1N
IC50 (L929): 30100 nM

The next lines start with the compound.

Structure (SMILES): COc1ccc(N2C(=O)CSC2c2cc(OC)c(OC)c(OC)c2)cc1 (stereo not given)
IC50 (Tubulin): 2120 nM

Structure (SMILES): COc1cc(/C=C(\c2cc(OC)c(OC)c(OC)c2)c2nc3cc(OC)c(OC)cc3o2)ccc1O
IC50 (A549): < 100 nM
IC50 (MCF7): < 100 nM

Structure (SMILES): COc1cc(/C=C(\c2cc(OC)c(OC)c(OC)c2)c2nnc(-c3cc(OC)c(OC)c(OC)c3)o2)ccc1O
IC50 (DU-145): 100 nM

Structure (SMILES): CCOc1ccc(-c2nccn2-c2cc(OC)c(OC)c(OC)c2)cc1Cl
IC50 [1]: 870 nM
